Measurements taken from US20140256663A1, “Amphotericin Analogous Compounds and Pharmaceutical Compositions Containing Them” (CENTRO DE INVESTIGACION Y DE ESTUDIOS AVANZADOS DEL …, priority 2010, published 2014).
Entries after “also recorded” stand apart in the source; their conditions may differ.

How the values were obtained:
[1] = test system: Saccharomyces cerevisae FY833(SC) cells; experiment: Viability of Saccharomyces cerevisae FY833 (SC) cells at various concentrations; assay type: cell-based; conditions: FIG. 1, various concentrations; listed as amide 1
Protocol: All derivatives were tested for antibiotic activity in yeast cultures of S. cerevisiae.

[2] = test system: human renal cells 293Q (ATCC CLR-1573); experiment: MTT cytotoxicity on human renal cells 293Q; conditions: human renal cells 293Q, 24 h
Protocol: For cytotoxicity studies human kidney cells (ATCC No. CRL-1573) were used. The cells were cultured with Minimum Essential Medium (MEM) (GIBCO BRL), supplemented with 10% fetal bovine serum (FBS) (GIBCO BRL), 2 mM 1-glutamine (GIBCO BRL), 1.5 gL Na2HCO3 (Sigma Chemical Co), 0.1 mM nonessential amino acids (Sigma Chemical Co), and 1 mM sodium pyruvate (In vitro, S.A.). The technique of bromide of 3(4,5-dimethylthiazol-2-yl)-2,5-diphenyl tetrazolium (MTT) (Sigma Chemical Co) was applied; a technique which is based on the conversion of dye to an insoluble precipitate called formazan. This test is used as an indicator of mitochondrial function in living cells that measures the metabolic capacity in cells and serves as an indicator of cytotoxicity. […] (Mosman […], Immunol Methods, 65: 55-63). The cytoxicity test consisted of planting 10,000 cells per well in 96-well plates (Corning Incorporated Costar) in MEM and incubate them (Nuaire us autoflow CO2 water-jacketed incubator) during 24 h at 37° C. and 5% CO2. […] After incubation, cells were treated and incubated anew for 24 h. After this time the medium was aspirated carefully and replaced with 200 μL of fresh medium, and 50 μL of MTT was added for a total volume of 250 μl. They were then incubated for 4 hours in the above conditions. After that time the medium with MTT was carefully removed and 200 μL of DMSO and 25 μL of Sorensen buffer (0.1 M glycine+0.1 M NaCl at pH 10.5) were added to each well. The plate was then mixed until the formazan crystals dissolved, and it was finally read in a plate reader (Microplate Limaning System Ultramark, Biorad) at a wavelength of 550 nm.
For the tests, we used human renal ephythelial cells (293Q) (ATCC Catalog No. CRL-1573). The cells were cultured with Minimum Essential Medium (MEM) (GIBCO BRL) supplemented with 10% fetal bovine serum (FBS) (GIBCO BRL), 2 mM L-glutamine (GIBCO BRL), 1.5 g/L Na2HCO3 (Sigma Chemical Co), 0.1 mM nonessential amino acids (Sigma Chemical Co), and 1 mM sodium pyruvate (In vitro, S.A.). For cytoxicity tests, we applied the technique of bromide 3(4,5-dimethylthiazol-2-yl)-2,5-diphenyl tetrazolium (MTT) (Sigma Chemical Co), which is based on the conversion of the dye to an insoluble precipitate called formazan. This test is used as an indicator of mitochondrial function in living cells which measures the metabolic capacity in cells and serves as an indicator of cytotoxicity. (Wang, H. Z., Chang, C. H., Lin, C. P., Tsai, M. C). Using MTT viability assay to test the cytotoxicity of antibiotics and steroid to cultured porcine corneal endothelial cells. J. Ocul. Pharmacol. Ther. 1996; 12: 35-43). For the essay 10,000 cells were seeded per well in 96-well plates (Corning Incorporated Costar) in the medium already indicated and incubated for 24 h at 37° C. and 5% CO2. […] After incubation, cells were treated and incubated again for 24 h. The medium was carefully aspirated and replaced with 200 μl fresh medium, adding 50 μl MTT solution for a total volume of 250 μl. They were then incubated for 4 hours in the above conditions. The medium was carefully removed with MTT and 200 μl DMSO and 25 μl Sorense buffer (0.1 M glycine+0.1 M NaCl at pH 10.5) was added to each well. Then the plate was mixed until the formazan crystals dissolved; it was finally read in a reader plate (Microplate Limaning System Ultramark, Biorad) at a wavelength of 550 nm.

[3] = Unit channel studies in chicken egg lecithin bilayers with cholesterol; conditions: for Opening probability, channel type I / Opening probability, channel type II / Opening probability, channel type III / Opening probability, channel type IV / Opening probability, channel type V / Opening probability, channel type VI: 200 μM compound, 30 mol % cholesterol, 27° C.
Protocol: The activity is determined by the presence of the different channels formed by polyenes in the lipid bilayer (Cotero, et al., supra; Venegas, et al., supra). […] These values were determined by the technique of unit channel delineated above.
Unit channel studies were performed according to procedures described earlier (Cotero, et al., supra, Venegas, et al., supra). Required liposomal suspensions were prepared using lecithin with cholesterol or ergosterol. These suspensions were placed in an ultrasonic bath for 15 minutes to produce unilamellar vesicles. Subsequently, the suspension was placed in a 100 μl eppendorf and a lipid bilayer was formed on the tip of a micro-electrode. The unit channels of amphotericin and of the invented compounds were incorporated to this bilayer. The unit channel current of the various compounds was recorded with an electrometer, and then these records were analyzed by determining the activity of the compounds and the characteristics of the channels formed.
The activity is determined by the presence of the various channels formed by polyenes in the lipid bilayer (Cotero, et al., supra, Venegas, et al., supra). […] This conductance is the effect of all the channels present and was determined by the unit channel technique earlier described.

[4] = test system: Candida albicans ATCC 752; experiment: Antifungal activity in vitro by flow cytometry, Candida albicans ATCC 752; assay type: cell-based; conditions: ATCC752, 24 h at 37° C., read-out: CF50 Candida albicans ATCC 752
Protocol: (§1) The antifungal activity of the polyene macrolide derivate of the present invention was determined by flow cytometry method earlier described (Pinto et al., J. Medical Microbiology, 2009; 58, 1454-1462; Pina-Vaz and Rodriguez, Methods Mol. Biol. 2010; 638:281-289). For the test two strains of Candida albicans (ATCC 10231 and 752) and Candida kruzei were used. A cellular suspension of 1×10^6 UFC/mL was used, which has sown in 96-well plates. […] As controls were used: untreated yeasts (control of living cells), yeasts exposed to UV radiation (arrest, inhibition of proliferation), and yeasts exposed at temperature of 100° C. (dead yeasts). Cells were collected by centrifugation at 10,000×g for 10 min, they were washed once in phosphate buffer. […] of propidium iodide 0.1 mg/mL were added to the cell suspension. It was incubated during 30 minutes at room temperature and protected from light. Finally, the samples were analyzed by flow cytometry (Becton-Dickinson Facsc Calibur, laser argon 480 nm). The intrinsic parameters and fluorescence in the FL2 channel (yellow/orange fluorescence) for FUN and channel FL3 (red fluorescence, filter 630 nm) for propidium iodide were acquired and registered on a logarithmic scale for a minimum of 7500 events per sample. For data analysis, the quadrants were adjusted in a plot of data lines of fluorescence intensity of samples. […] These quadrants were used to quantify the percentile of cells showing altered fluorescence compared to drug-free controls.

[5] = test system: Candida albicans ATCC 10231; experiment: Antifungal activity in vitro by flow cytometry, Candida albicans ATCC 10231; assay type: cell-based; conditions: ATCC10231, 24 h at 37° C., read-out: CF50 Candida albicans ATCC 10231
Protocol: as §1

Candida kruzei = experiment: Antifungal activity in vitro by flow cytometry, Candida kruzei; assay type: cell-based; conditions: 24 h at 37° C., read-out: CF50 Candida kruzei
Protocol: as §1

human erythrocytes = experiment: Hemolytic assay on human erythrocytes; assay type: cell-based; conditions: 1 hour
Protocol: The hemotoxicity of the polyene macrolide derivative of the present invention was determined by measuring the toxicity to human erythrocytes (values HE50) using a method established by Cybulska, et al. (Cybulska, B., Borowski, E. and Gary-Bobo, M. Relationship between ionophoric and hemolytic activities of perimycin A and vacidin A, two polyene macrolide antifungal antibiotics. Biochem Pharmacol. 1989; 38(11): 1755-1762). For determining the haematoxicity 2 mL blood were obtained and placed in a tube with EDTA. The number of erythrocytes was counted in a Neubauer chamber, and 1×10^7 cells/mL were placed in test tubes. The erythrocytes were resuspended in 450 μL of KCl 150 mM+Tris 3 mM buffer. The erythrocytes were treated with concentrations of 0.01, 0.1, 1, 10 y 100 μM and incubated in a water bath for 1 hour. They were then centrifuged at 1500 rpm for 15 seconds; 150 μL were taken from the supernatant and placed in 96-well plates; the optical density of each group was measured using a plate reader at a wavelength of 550 nm. We included one tube with the drug solvent (DMSO 1%) as internal control. We also included one tube only with erythrocytes and 500 μl of buffer KCl 150 mM+Tris 3 mM, which we consider as a negative control group and a tube with 500 μl of red cells and 35 mM NaCl (positive control).

SMILES | inhibitory capacity / potency on SC cells compared to AmB [1] | DT50 CitE50 [2] [µM] | Opening probability, channel type I [3] [%] | Opening probability, channel type II [3] [%] | Opening probability, channel type III [3] [%] | Opening probability, channel type IV [3] [%] | Opening probability, channel type V [3] [%] | Opening probability, channel type VI [3] | activity of transmembranal channels in the cholesterol membrane ([3]; in words, compared to AmB) | IC50 [4] [µM] | IC50 [5] [µM] | IC50 (Candida kruzei) [µM] | HE50 (Hemolysis 50) (human erythrocytes) [µM]
CC1OC(O[C@H]2/C=C/C=C/C=C/C=C/C=C/C=C/C=C/C(C)[C@@H](O)C(C)C(C)OC(=O)C[C@H](O)C[C@H](O)CC[C@@H](O)[C@H](O)C[C@H](O)C[C@]3(O)CC(O)[C@@H](C(=O)NCc4ccccc4)C(C2)O3)C(O)C(N)C1O (stereo partly drawn) [A-1, N-benzylamide of AmB] | the most similar; also recorded: the highest power of the derivatives | 100 | 2 | 1 | <1 | <1 | <1 | <1% | low activity of transmembranal channels | > 100 | > 100 | > 100 | 52
CC1OC(O[C@H]2/C=C/C=C/C=C/C=C/C=C/C=C/C=C/C(C)[C@@H](O)C(C)C(C)OC(=O)C[C@H](O)C[C@H](O)CC[C@@H](O)[C@H](O)C[C@H](O)C[C@]3(O)CC(O)[C@@H](C(=O)NC4CCCCC4)C(C2)O3)C(O)C(N)C1O (stereo partly drawn) [A-2, N-cycloheximide of AmB] |  | 120 | 5 | <1 | <1 | <1 | <1 | <1% |  | > 100 | > 50 | > 100 | 45
CC(NC(=O)[C@@H]1C(O)C[C@@]2(O)C[C@@H](O)C[C@@H](O)[C@H](O)CC[C@@H](O)C[C@@H](O)CC(=O)OC(C)C(C)[C@H](O)C(C)/C=C/C=C/C=C/C=C/C=C/C=C/C=C/[C@H](OC3OC(C)C(O)C(N)C3O)CC1O2)c1ccccc1 (stereo partly drawn) [A-4, N—(S)-α-phenylethylamide of AmB] |  | 80 | 7 | 3 | 1 | <1 | <1 | <1% |  | > 100 | > 50 | > 100 | 46
CC1OC(O[C@H]2/C=C/C=C/C=C/C=C/C=C/C=C/C=C/C(C)[C@@H](O)C(C)C(C)OC(=O)C[C@H](O)C[C@H](O)CC[C@@H](O)[C@H](O)C[C@H](O)C[C@]3(O)CC(O)[C@@H](C(=O)N[C@H](C)c4ccccc4)C(C2)O3)C(O)C(N)C1O (stereo partly drawn) [A-5, N—(R)-α-phenylethylamide of AmB] |  | 100 | 10 | 2 | <1 | <1 | <1 | <1% |  | > 100 | > 50 | > 100 | 42
COC(=O)C(Cc1c[nH]c2ccccc12)NC(=O)[C@@H]1C(O)C[C@@]2(O)C[C@@H](O)C[C@@H](O)[C@H](O)CC[C@@H](O)C[C@@H](O)CC(=O)OC(C)C(C)[C@H](O)C(C)/C=C/C=C/C=C/C=C/C=C/C=C/C=C/[C@H](OC3OC(C)C(O)C(N)C3O)CC1O2 (stereo partly drawn) [A-6, N-(L)-tryptophanamide of AmB] |  | 120 | 23 | 2 | <1 | <1 | <1 | N.O. |  | > 100 | > 50 | > 100 | 58
CC1/C=C/C=C/C=C/C=C/C=C/C=C/C=C/[C@H](OC2O[C@H](O)[C@@H](O)[C@H](N)[C@@H]2O)C[C@@H]2O[C@](O)(C[C@@H](O)C[C@@H](O)[C@H](O)CC[C@@H](O)C[C@@H](O)CC(=O)O[C@@H](C)[C@H](C)[C@@H]1O)C[C@H](O)[C@H]2C(=O)NCCc1c[nH]cn1 (stereo partly drawn) [A-8, N-histaminamide of AmB] |  |  |  |  |  |  |  |  |  | > 100 | > 50 | > 100 | 
